Consider twelve compounds from paper PMC7531004, “Discovery of gramicidin A analogues with altered activities by multidimensional screening of a one-bead-one-compound library” (Nature Communications, 2020).

A word on the viability: it is a per cent measure of how many cells are alive, often set against a control.

The nature of data set [1]: H+/Na+ transport assay of bead-derived peptides (one-point).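 Note: relative to parent gramicidin A activity set to 1.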 In kind it is biochemical. Also noted: key: relative activity; mean of two control wells = 1.00. As to conditions: bead-derived peptide solution, EYPC/EYPG LUVs. In outline:
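One-point screen: peptide + pyranine-loaded LUVs, 30 min RT with vortexing, 96-well. Read-out is fluorescence intensity scaled as 100 × (Ix – I0)/(Imax – I0). Imax from Triton X-100, I0 from untreated vesicles, and the mean of the two control wells is set to 1.00.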

Data set [2] relates to Streptococcus pyogenes SSI-9. Put plainly: Antibacterial activity assay of bead-derived peptides (three concentrations). It is filed as cell-based. Also noted: key: +++: inhibition by the 640-fold diluted peptide solution; ++: inhibition by the 160-fold diluted solution; +: inhibition by the 40-fold diluted solution; -: no inhibition. As to conditions: S. pyogenes, bead-derived peptide solution, three concentrations. In outline:
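Three stock dilutions per peptide (none, 4-fold, 16-fold in DMSO) are screened in 96-well format. The medium is blood-supplemented cation-adjusted MHB, inoculated with 2 × 10^5 CFU S. pyogenes SSI-9. Growth is read as cell precipitation at 18 h, 37 °C.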

The conditions of data set [3]: cell viability/%. In outline: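 First, library peptide stocks are diluted 250-fold in RPMI1640 with 10% heat-inactivated FBS. Next, they are mixed with P388 cells to give 1 × 10^4 cells/mL and incubated 92 h at 37 °C, 5% CO2. Finally, viability (%) is scored by WST-1 absorbance at 415 nm.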

Where a SMILES comes first, the peptide text is derived from it. [ ]: non-standard residue; d: D form. The star is where a group is joined. NHCH2CH2OH = OCCN*; For = O=C*

For the compound `CC(C)C[C@@H](NC(=O)[C@@H](NC(=O)[C@H](NC(=O)[C@H](C)NC(=O)[C@H](NC(=O)[C@H](C)NC(=O)CNC(=O)[C@@H](NC=O)C(C)C)C(C)C)C(C)C)C(C)C)C(=O)N[C@@H](Cc1c[nH]c2ccccc12)C(=O)N[C@@H](C(=O)N[C@@H](Cc1c[nH]c2ccccc12)C(=O)N[C@@H](C(=O)N[C@@H](Cc1c[nH]c2ccccc12)C(=O)N[C@@H](C(=O)N[C@@H](Cc1c[nH]c2ccccc12)C(=O)NCCO)[C@H](C)O)C(C)C)C(C)C` [compound 7050] (For-VGA[dV]A[dV]V[dL]W[dV]W[dV]W[dT]W-NHCH2CH2OH), the “H+/Na+ transport activity normalized against the value of 1 (1.00)” value (“H+/Na+ transport activity normalized” below) in data set [1] was 1.21. For the same compound, the antibacterial activity result in data set [2] is listed as “-”. In addition, in data set [3], the viability is 100%.
Taken in the same sequence, the figures for `CC(C)C[C@@H](NC(=O)[C@H](Cc1c[nH]c2ccccc12)NC(=O)[C@H](NC(=O)[C@H](Cc1c[nH]c2ccccc12)NC(=O)[C@H](NC(=O)[C@@H](NC(=O)[C@H](NC(=O)[C@H](C)NC(=O)[C@H](NC(=O)[C@H](C)NC(=O)CNC(=O)[C@@H](NC=O)C(C)C)C(C)C)[C@H](C)O)C(C)C)C(C)C)C(C)C)C(=O)N[C@@H](Cc1c[nH]c2ccccc12)C(=O)N[C@@H](C(=O)N[C@@H](Cc1c[nH]c2ccccc12)C(=O)NCCO)C(C)C` [compound 7061] (For-VGA[dV]A[dT]V[dV]W[dV]W[dL]W[dV]W-NHCH2CH2OH) were 1.01, “-” and 100%.
Taken in the same sequence, the figures for `CNC(=O)C[C@@H](NC(=O)[C@H](C)NC(=O)[C@@H](CC(C)C)NC(=O)[C@H](C)NC(=O)CNC(=O)[C@@H](NC=O)C(C)C)C(=O)N[C@H](C(=O)N[C@H](CC(C)C)C(=O)N[C@@H](Cc1c[nH]c2ccccc12)C(=O)N[C@H](CC(C)C)C(=O)N[C@@H](Cc1c[nH]c2ccccc12)C(=O)N[C@@H](C(=O)N[C@@H](Cc1c[nH]c2ccccc12)C(=O)N[C@@H](C(=O)N[C@@H](Cc1c[nH]c2ccccc12)C(=O)NCCO)C(C)C)C(C)C)C(C)C` [compound 7119] (For-VGA[dL]A[dD](NHMe)V[dL]W[dL]W[dV]W[dV]W-NHCH2CH2OH) were 1.15, “-” and 100%.
Take `CC(C)C[C@@H](NC(=O)[C@H](C)NC(=O)CNC(=O)[C@@H](NC=O)C(C)C)C(=O)N[C@@H](C)C(=O)N[C@H](CC(C)C)C(=O)N[C@H](C(=O)N[C@H](CC(C)C)C(=O)N[C@@H](Cc1c[nH]c2ccccc12)C(=O)N[C@H](CC(C)C)C(=O)N[C@@H](Cc1c[nH]c2ccccc12)C(=O)N[C@@H](C(=O)N[C@@H](Cc1c[nH]c2ccccc12)C(=O)N[C@@H](C(=O)N[C@@H](Cc1c[nH]c2ccccc12)C(=O)NCCO)[C@H](C)O)[C@H](C)O)C(C)C` [compound 7156] (For-VGA[dL]A[dL]V[dL]W[dL]W[dT]W[dT]W-NHCH2CH2OH): in data set [1], the “H+/Na+ transport activity normalized” value was 1.08. Besides, the antibacterial activity entry in data set [2] is given as “-”. The viability in data set [3] was determined as 100%.
Taken in the same sequence, the figures for `CNC(=O)C[C@@H](NC(=O)[C@@H](NC(=O)[C@H](NC(=O)[C@H](C)NC(=O)[C@@H](CC(C)C)NC(=O)[C@H](C)NC(=O)CNC(=O)[C@@H](NC=O)C(C)C)C(C)C)C(C)C)C(=O)N[C@@H](Cc1c[nH]c2ccccc12)C(=O)N[C@H](CC(C)C)C(=O)N[C@@H](Cc1c[nH]c2ccccc12)C(=O)N[C@H](CC(C)C)C(=O)N[C@@H](Cc1c[nH]c2ccccc12)C(=O)N[C@@H](C(=O)N[C@@H](Cc1c[nH]c2ccccc12)C(=O)NCCO)C(C)C` [compound 7204] (For-VGA[dL]A[dV]V[dD](NHMe)W[dL]W[dL]W[dV]W-NHCH2CH2OH) were 1.17, “-” and 100%.
The like results for `CC(C)C[C@@H](NC(=O)[C@H](C)NC(=O)[C@H](NC(=O)[C@H](C)NC(=O)CNC(=O)[C@@H](NC=O)C(C)C)[C@H](C)O)C(=O)N[C@H](C(=O)N[C@@H](C(=O)N[C@@H](Cc1c[nH]c2ccccc12)C(=O)N[C@@H](C(=O)N[C@@H](Cc1c[nH]c2ccccc12)C(=O)N[C@@H](C(=O)N[C@@H](Cc1c[nH]c2ccccc12)C(=O)N[C@H](CC(C)C)C(=O)N[C@@H](Cc1c[nH]c2ccccc12)C(=O)NCCO)C(C)C)[C@H](C)O)C(C)C)C(C)C` [compound 7225] (For-VGA[dT]A[dL]V[dV]W[dT]W[dV]W[dL]W-NHCH2CH2OH) were, in that order, 1.14, “-” and 100%.
`CC(C)C[C@@H](NC(=O)[C@H](C)NC(=O)CNC(=O)[C@@H](NC=O)C(C)C)C(=O)N[C@@H](C)C(=O)N[C@H](CC(C)C)C(=O)N[C@H](C(=O)N[C@H](CC(C)C)C(=O)N[C@@H](Cc1c[nH]c2ccccc12)C(=O)N[C@@H](C(=O)N[C@@H](Cc1c[nH]c2ccccc12)C(=O)N[C@@H](C(=O)N[C@@H](Cc1c[nH]c2ccccc12)C(=O)N[C@@H](C(=O)N[C@@H](Cc1c[nH]c2ccccc12)C(=O)NCCO)[C@H](C)O)[C@H](C)O)C(C)C)C(C)C` [compound 7253] (For-VGA[dL]A[dL]V[dL]W[dV]W[dT]W[dT]W-NHCH2CH2OH): the “H+/Na+ transport activity normalized” value in data set [1] stood at 1.03. For the same compound, the antibacterial activity result in data set [2] was “-”. The compound further yielded a viability in data set [3] of 45.4%.
In the case of `CC(C)C[C@@H](NC(=O)[C@H](Cc1c[nH]c2ccccc12)NC(=O)[C@H](NC(=O)[C@H](Cc1c[nH]c2ccccc12)NC(=O)[C@H](NC(=O)[C@H](Cc1c[nH]c2ccccc12)NC(=O)[C@@H](CC(C)C)NC(=O)[C@@H](NC(=O)[C@H](NC(=O)[C@H](C)NC(=O)[C@H](NC(=O)[C@H](C)NC(=O)CNC(=O)[C@@H](NC=O)C(C)C)C(C)C)[C@H](C)O)C(C)C)C(C)C)C(C)C)C(=O)N[C@@H](Cc1c[nH]c2ccccc12)C(=O)NCCO` [compound 7320] (For-VGA[dV]A[dT]V[dL]W[dV]W[dV]W[dL]W-NHCH2CH2OH), in data set [1], the “H+/Na+ transport activity normalized” value is 1.04. Moreover, the antibacterial activity entry in data set [2] is reported as “-”. In addition, the viability in data set [3] stood at 58.5%.
For `CNC(=O)C[C@@H](NC(=O)[C@H](Cc1c[nH]c2ccccc12)NC(=O)[C@H](NC(=O)[C@H](Cc1c[nH]c2ccccc12)NC(=O)[C@@H](CC(C)C)NC(=O)[C@H](Cc1c[nH]c2ccccc12)NC(=O)[C@@H](CC(C)C)NC(=O)[C@@H](NC(=O)[C@@H](CC(C)C)NC(=O)[C@H](C)NC(=O)[C@H](NC(=O)[C@H](C)NC(=O)CNC(=O)[C@@H](NC=O)C(C)C)C(C)C)C(C)C)C(C)C)C(=O)N[C@@H](Cc1c[nH]c2ccccc12)C(=O)NCCO` [compound 7334] (For-VGA[dV]A[dL]V[dL]W[dL]W[dV]W[dD](NHMe)W-NHCH2CH2OH), the “H+/Na+ transport activity normalized” value in data set [1] is reported as 1.11. For the same compound, the antibacterial activity result in data set [2] is reported as “-”. Besides, the viability in data set [3] was 94.6%.
For `CC(C)C[C@@H](NC(=O)[C@H](C)NC(=O)CNC(=O)[C@@H](NC=O)C(C)C)C(=O)N[C@@H](C)C(=O)N[C@H](CC(C)C)C(=O)N[C@H](C(=O)N[C@H](CC(C)C)C(=O)N[C@@H](Cc1c[nH]c2ccccc12)C(=O)N[C@H](CC(C)C)C(=O)N[C@@H](Cc1c[nH]c2ccccc12)C(=O)N[C@@H](C(=O)N[C@@H](Cc1c[nH]c2ccccc12)C(=O)N[C@@H](C(=O)N[C@@H](Cc1c[nH]c2ccccc12)C(=O)NCCO)[C@H](C)O)C(C)C)C(C)C` [compound 7512] (For-VGA[dL]A[dL]V[dL]W[dL]W[dV]W[dT]W-NHCH2CH2OH), the “H+/Na+ transport activity normalized” value in data set [1] amounted to 1.05. Moreover, in data set [2], the antibacterial activity result is “-”. Further, the viability in data set [3] came to 100%.
Regarding `CC(C)C[C@@H](NC(=O)[C@H](C)NC(=O)CNC(=O)[C@@H](NC=O)C(C)C)C(=O)N[C@@H](C)C(=O)N[C@@H](C(=O)N[C@H](C(=O)N[C@H](CC(C)C)C(=O)N[C@@H](Cc1c[nH]c2ccccc12)C(=O)N[C@@H](C(=O)N[C@@H](Cc1c[nH]c2ccccc12)C(=O)N[C@H](CC(C)C)C(=O)N[C@@H](Cc1c[nH]c2ccccc12)C(=O)N[C@H](CC(C)C)C(=O)N[C@@H](Cc1c[nH]c2ccccc12)C(=O)NCCO)C(C)C)C(C)C)C(C)C` [compound 7532] (For-VGA[dL]A[dV]V[dL]W[dV]W[dL]W[dL]W-NHCH2CH2OH), in data set [1], the “H+/Na+ transport activity normalized” value is given as 1.03. Also, the antibacterial activity entry in data set [2] is listed as “+”. The compound also registered a viability in data set [3] of 3.9%.
The like results for `CC(C)C[C@@H](NC(=O)[C@H](C)NC(=O)[C@H](NC(=O)[C@H](C)NC(=O)CNC(=O)[C@@H](NC=O)C(C)C)C(C)C)C(=O)N[C@H](C(=O)N[C@@H](C(=O)N[C@@H](Cc1c[nH]c2ccccc12)C(=O)N[C@@H](C(=O)N[C@@H](Cc1c[nH]c2ccccc12)C(=O)N[C@@H](C(=O)N[C@@H](Cc1c[nH]c2ccccc12)C(=O)N[C@@H](C(=O)N[C@@H](Cc1c[nH]c2ccccc12)C(=O)NCCO)C(C)C)C(C)C)C(C)C)C(C)C)C(C)C` [compound 7690] (For-VGA[dV]A[dL]V[dV]W[dV]W[dV]W[dV]W-NHCH2CH2OH) were, in that order, 1.03, “-” and 100%.
